# Test system: 699152-130-R-J1-PDC complex spheroid growth
# Assay: Anticancer human tumor 699152-130-R-J1-PDC patient-derived pancreatic carcinoma cell line growth inhibition [AhR]
# Conditions: for IC50: curve of first compound; for viability, T/C: stronger effect = lower value
# Excerpt: Multicellular complex tumor spheroid response to aryl hydrocarbon receptor antagonists in combination with a variety of drugs and investigational agents in selected tumor cell lines
# The current study was undertaken to assess response to aryl hydrocarbon receptor antagonists in combination with standard-of-care drugs and investigational agents in solid tumor complex spheroid models. Complex spheroids include a stromal component modeled by human endothelial cells (HUVEC) and fibroblasts modeled by human mesenchymal stem cells (MSCs). The concentration ranges selected for each drug and investigational agent were based upon clinically achievable concentrations if the clinical Cmax of the agent was known.
# Compounds. The drugs and investigational agents: BAY 2416964 (NSC825713), GNF351 (NSC835774), CH-223191 (NSC835775), CPI-455 (NSC825282), aza-TdCyd (NSC777586), decitabine (NSC127716), belinostat (NSC758774), entinostat (NSC756642), pevonedistat (NSC761192), tazemetostat (NSC777109), talazoparib (NSC765396), olaparib (NSC753686), selinexor (NSC780203), nedisertib (M3814, NSC802822), bortezomib (NSC756655), venetoclax (NSC766270), doxorubicin (NSC123127), elimusertib (BAY189344, NSC800525), ceralasertib (AZD6738, NSC777638), TAK-243 (NSC785004), alisertib (NSC759677), etoposide (NSC141540), topotecan (NSC609699), eribulin (NSC707389), gemcitabine (NSC613327), carboplatin (NSC241240), cisplatin (NSC119875), and SN-38 (NSC673596) were obtained from the National Cancer Institute (NCI) Developmental Therapeutics Program Chemical Repository (32). The FDA-approved anticancer drug set is available from the Developmental Therapeutics Program at https://dtp.cancer.gov/organization/dscb/obtaining/available plates.htm. […] The stock solutions were prepared in dimethyl sulfoxide (DMSO, Sigma-Aldrich, St. Louis, MO, cat. D2650), except for the platinum compounds which were prepared in saline (Quality Biological, Gaithersburg, MD, cat. 114-055-101), at 800-fold the tested concentration and stored at -70 degrees C prior to their use. All drugs and investigational agents were tested over a range starting from a high concentration at or near the clinical Cmax and decreasing in half-log increments. If the clinical Cmax for an agent had not been determined, the highest concentration tested was 10 microM (Table 1).
# Cell Culture. All cells were maintained in an incubator at 37 degrees C and 5% CO2 with 95% humidity. The PDC lines were cultured according to standard operating procedures established by the NCI PDMR (https://pdmr.cancer.gov). Briefly, all PDCs were thawed and cultured in Matrigel-coated flasks prepared with a working solution of 1X Ham's F-12 nutrient mix, without supplementation (Invitrogen, Waltham, MA, cat. 11765054), 100 U/mL penicillin-streptomycin (Invitrogen, cat. 15140122), and 2.5% Matrigel (Corning Inc., Corning, NY, cat. 354248) for the first three passages. All PDCs were cultured in complete DMEM/F-12 media containing advanced DMEM/F-12 (Invitrogen, cat. 12634028), 4.9% defined fetal bovine serum, heat inactivated (HyClone Laboratories Inc., Logan, UT, cat. SH30070.03HI), 389 ng/mL hydrocortisone (Sigma-Aldrich, cat. H4001), 9.7 ng/mL human EGF recombinant protein (Invitrogen, cat. PHG0313), 23.4 microg/mL adenine (Sigma-Aldrich, cat. A2786), 97.3 U/mL penicillin-streptomycin (Invitrogen, cat. 15140122), 1.9 mM L-glutamine (Invitrogen, cat. 25030081), and 9.7 microM Y-27632 dihydrochloride (Tocris Bioscience, Bristol, United Kingdom, cat. 1254). The PDCs were cultured in complete DMEM/F12 media without 10 microM Y-27632 dihydrochloride for at least two passages prior to the screen. The established cell lines NCI-H1341 and […] were cultured in DMEM/F-12, HEPES (Invitrogen, cat. 11330032), 5% defined fetal bovine serum (HyClone Laboratories Inc., cat. SH30070.03), ITS premix universal culture supplement [insulin (5 microg/mL), transferrin (5 microg/mL), and selenious acid (5 ng/mL)] […]
# 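Note: compound exposure lasted 7 days after spheroids had grown for 3 days.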
smiles,measurement,setting,value
CC(C)c1c(-c2ccccc2)nc2c(C#N)c[nH]n2c1=O + Cc1cncc(-c2nc(NCCc3c[nH]c4ccccc34)c3ncn(C(C)C)c3n2)c1,IC50,second compound 0.1 µM,> 10000 nM
same,IC50,second compound 0.316 µM,> 10000 nM
same,IC50,second compound 1 µM,> 10000 nM
same,IC50,second compound 3.16 µM,> 10000 nM
same,IC50,second compound 10 µM,< 31.6 nM
same,"viability, T/C","second compound 0.1 µM, first compound 0.0316 µM",98.9%
same,"viability, T/C","second compound 0.1 µM, first compound 0.1 µM",103%
same,"viability, T/C","second compound 0.1 µM, first compound 0.316 µM",101%
same,"viability, T/C","second compound 0.1 µM, first compound 1 µM",107%
same,"viability, T/C","second compound 0.1 µM, first compound 3.16 µM",107%
same,"viability, T/C","second compound 0.1 µM, first compound 10 µM",111%
same,"viability, T/C","second compound 0.316 µM, first compound 0.0316 µM",104%
same,"viability, T/C","second compound 0.316 µM, first compound 0.1 µM",109%
same,"viability, T/C","second compound 0.316 µM, first compound 0.316 µM",101%
same,"viability, T/C","second compound 0.316 µM, first compound 1 µM",116%
same,"viability, T/C","second compound 0.316 µM, first compound 3.16 µM",96.4%
same,"viability, T/C","second compound 0.316 µM, first compound 10 µM",96.8%
same,"viability, T/C","second compound 1 µM, first compound 0.0316 µM",118%
same,"viability, T/C","second compound 1 µM, first compound 0.1 µM",118%
same,"viability, T/C","second compound 1 µM, first compound 0.316 µM",121%
same,"viability, T/C","second compound 1 µM, first compound 1 µM",125%
same,"viability, T/C","second compound 1 µM, first compound 3.16 µM",108%
same,"viability, T/C","second compound 1 µM, first compound 10 µM",101%
same,"viability, T/C","second compound 3.16 µM, first compound 0.0316 µM",60.4%
same,"viability, T/C","second compound 3.16 µM, first compound 0.1 µM",66.4%
same,"viability, T/C","second compound 3.16 µM, first compound 0.316 µM",65%
same,"viability, T/C","second compound 3.16 µM, first compound 1 µM",58.9%
same,"viability, T/C","second compound 3.16 µM, first compound 3.16 µM",58.2%
same,"viability, T/C","second compound 3.16 µM, first compound 10 µM",66.4%
same,"viability, T/C","second compound 10 µM, first compound 0.0316 µM",4.82%
same,"viability, T/C","second compound 10 µM, first compound 0.1 µM",4.89%
same,"viability, T/C","second compound 10 µM, first compound 0.316 µM",5.56%
same,"viability, T/C","second compound 10 µM, first compound 1 µM",4.11%
same,"viability, T/C","second compound 10 µM, first compound 3.16 µM",4.63%
same,"viability, T/C","second compound 10 µM, first compound 10 µM",6.54%
Nc1ncn(C2CC(O)C(CO)S2)c(=O)n1 (stereo not given) + Cc1cncc(-c2nc(NCCc3c[nH]c4ccccc34)c3ncn(C(C)C)c3n2)c1,IC50,second compound 0.1 µM,> 300 nM
same,IC50,second compound 0.316 µM,> 300 nM
same,IC50,second compound 1 µM,> 300 nM
same,IC50,second compound 3.16 µM,> 300 nM
same,IC50,second compound 10 µM,< 0.949 nM
same,"viability, T/C","second compound 0.1 µM, first compound 0.000949 µM",105%
same,"viability, T/C","second compound 0.1 µM, first compound 0.003 µM",93.8%
same,"viability, T/C","second compound 0.1 µM, first compound 0.00949 µM",99.9%
same,"viability, T/C","second compound 0.1 µM, first compound 0.03 µM",99.5%
same,"viability, T/C","second compound 0.1 µM, first compound 0.0949 µM",90.8%
same,"viability, T/C","second compound 0.1 µM, first compound 0.3 µM",91.4%
same,"viability, T/C","second compound 0.316 µM, first compound 0.000949 µM",112%
same,"viability, T/C","second compound 0.316 µM, first compound 0.003 µM",95.9%
same,"viability, T/C","second compound 0.316 µM, first compound 0.00949 µM",97%
same,"viability, T/C","second compound 0.316 µM, first compound 0.03 µM",103%
same,"viability, T/C","second compound 0.316 µM, first compound 0.0949 µM",101%
same,"viability, T/C","second compound 0.316 µM, first compound 0.3 µM",107%
same,"viability, T/C","second compound 1 µM, first compound 0.000949 µM",126%
same,"viability, T/C","second compound 1 µM, first compound 0.003 µM",110%
same,"viability, T/C","second compound 1 µM, first compound 0.00949 µM",106%
same,"viability, T/C","second compound 1 µM, first compound 0.03 µM",110%
same,"viability, T/C","second compound 1 µM, first compound 0.0949 µM",113%
same,"viability, T/C","second compound 1 µM, first compound 0.3 µM",111%
same,"viability, T/C","second compound 3.16 µM, first compound 0.000949 µM",91.6%
same,"viability, T/C","second compound 3.16 µM, first compound 0.003 µM",88.8%
same,"viability, T/C","second compound 3.16 µM, first compound 0.00949 µM",95.1%
same,"viability, T/C","second compound 3.16 µM, first compound 0.03 µM",94.6%
same,"viability, T/C","second compound 3.16 µM, first compound 0.0949 µM",107%
same,"viability, T/C","second compound 3.16 µM, first compound 0.3 µM",104%
same,"viability, T/C","second compound 10 µM, first compound 0.000949 µM",23.9%
same,"viability, T/C","second compound 10 µM, first compound 0.003 µM",21%
same,"viability, T/C","second compound 10 µM, first compound 0.00949 µM",22.8%
same,"viability, T/C","second compound 10 µM, first compound 0.03 µM",22.5%
same,"viability, T/C","second compound 10 µM, first compound 0.0949 µM",19.6%
same,"viability, T/C","second compound 10 µM, first compound 0.3 µM",20.4%
